Source: patent US8063221B2, “Aminoquinolones as GSK-3 inhibitors” (Kyorin Pharmaceutical Co., Ltd., priority 2006, dated 2011)
In brackets after ≈: the same amount, converted by molar mass. Where two headings read alike, the source gives them in different places.

What was measured:
[1] = system: S. aureus Smith; assay: Antibacterial activity (MIC), S. aureus; type: cell-based; conditions: Staphylococcus aureus
Text: (§1) As used herein, a minimum inhibitory concentration (MIC) for bacterial growth assay is the lowest level of a compound needed to cause an inhibition to bacterial growth in culture medium. In certain embodiments, the antibacterial activity of compounds herein, measured as MIC.
(§2) In certain embodiments, GSK3 inhibitors provided herein are substantially free of antibacterial activity or having very low antibacterial activity. The antibacterial activity can be measured by methods known in the art by estimating a minimum inhibitory concentration (MIC) for test compounds. A MIC is the lowest level of a compound needed to cause an inhibition to bacterial growth in a culture medium. […] (Clinical and Laboratory Standards Institute. Methods for Dilution Antimicrobial Susceptibility Tests for Bacteria That Grow Aerobically; Approved Standard-Sixth Edition: CLSI document […]. CLSI, Wayne, Pa. (2003))
(§3) Antibacterial activity for E. coli, ATCC8739 andS. aureus Smith expressed as MIC (μM) is provided as follows: […]

[2] = system: E. coli, ATCC8739; assay: Antibacterial activity (MIC), E. coli; type: cell-based; conditions: Escherichia coli
Text: as §1, §2, §3

[3] = molecular target: T1, recombinant full-length human GSK3β (Homo sapiens, UniProt P49841); assay: Luciferase-coupled cell-free GSK3β kinase assay; type: biochemical
T1 construct: recombinant full-length human GSK3β (Upstate); purchased Upstate
Description: For compounds in Tables 1 and 2, IC50 (μM) for GSK3β enzyme in cell free assay is provided as follows:
Luciferase-Coupled Protein Kinase Assays
All coupled-luciferase assays are performed by using a brief incubation with firefly luciferase (Promega) after completion of the kinase assay. KinaseGlo Plus is used for reading kinase reactions with ATP>10 μM, KinaseGlo for ATP <10 μM. The assay volume in a 384-well plate for the kinase reaction is 30 microliters.
10-25 ng of recombinant full-length human GSK3β (Upstate) is incubated in the presence or absence of compound at varying concentrations for 1 hour at 30 degrees Celsius in 20 mM MOPS, pH 7.0, 10 mM magnesium acetate, 0.2 mM EDTA, 2 mM EGTA, 30 mM magnesium chloride, 62.5 μM phospho-glycogen synthase peptide-2, 5 μM ATP, 10 mM β-glycerol phosphate, 1 mM sodium orthovanadate and 1 mM dithiothreitol. Proceed to KinaseGlo luciferase reaction (see below).
Following the completion of the kinase reaction an equal volume of KinaseGlo or KinaseGlo Plus luciferase reagent (Promega) is added and the luminescence read using a luminescence plate reader within 5-10 minutes. Compound activity is expressed as % inhibition relative to maximal inhibition observed at the maximal dose and IC50 values then calculated using curve fitting software (GraphPad Prizm).

[4] = Table 2, S. aureus Smith, read-out: Antimicrobial MIC [μM] S. aureus
[5] = ATCC8739, Table 2, E. coli ATCC8739, read-out: Antimicrobial MIC [μM] E. Coli
[6] = Table 1, read-out: Antibacterial MIC (μM) S. aureus Smith
[7] = ATCC8739, Table 1, E. coli ATCC8739, read-out: Antibacterial MIC (μM) E.Coli
[8] = read-out: Antibacterial MIC (μM) S. aureus Smith
[9] = ATCC8739, read-out: Antibacterial MIC (μM) E.Coli

T1 sequence (P49841 whole entry): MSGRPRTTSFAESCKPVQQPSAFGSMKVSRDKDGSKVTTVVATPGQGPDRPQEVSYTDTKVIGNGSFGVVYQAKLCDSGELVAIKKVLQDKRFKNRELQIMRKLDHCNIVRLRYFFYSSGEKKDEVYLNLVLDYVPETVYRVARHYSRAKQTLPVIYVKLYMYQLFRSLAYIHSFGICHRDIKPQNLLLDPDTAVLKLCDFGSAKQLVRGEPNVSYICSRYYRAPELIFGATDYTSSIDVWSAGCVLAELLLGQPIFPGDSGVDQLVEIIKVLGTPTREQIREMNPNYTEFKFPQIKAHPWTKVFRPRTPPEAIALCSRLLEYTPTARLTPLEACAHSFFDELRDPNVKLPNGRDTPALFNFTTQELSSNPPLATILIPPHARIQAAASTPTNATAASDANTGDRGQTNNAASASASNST

| SMILES | MIC [1, 4] [µM] | MIC [2, 5] [µM] | IC50 ([3]; Table 2) [nM] | MIC [1, 6] [µM] | MIC [2, 7] [µM] | IC50 ([3]; Table 1) [nM] | MIC [1, 8] [µM] | MIC [2, 9] [µM] |
| --- | --- | --- | --- | --- | --- | --- | --- | --- |
| CC1(C)COc2c(NCCc3ccncc3)c(F)c(N)c3c(=O)c(C(=O)O)cn1c23 [compound 39] | 10 to 50 (≈ 4.12 to 20.6 µg/mL) | > 50 | 100 to 500 | – | – | – | – | – |
| CC(C)OCCCNc1c(F)c(N)c2c(=O)c(C(=O)O)cn3c2c1OCC3(C)C [compound 40] | > 50 | > 50 | 100 to 500 | – | – | – | – | – |
| CC1(C)COc2c(NCCCN3CCCC3=O)c(F)c(N)c3c(=O)c(C(=O)O)cn1c23 [compound 41] | > 50 | > 50 | < 100 | – | – | – | – | – |
| CC(C)C[C@H]1COc2c(NCCCn3cnc4ccccc43)c(F)c(N)c3c(=O)c(C(=O)O)cn1c23 [compound 48] | 10 to 50 (≈ 4.94 to 24.7 µg/mL) | 10 to 50 (≈ 4.94 to 24.7 µg/mL) | < 100 | – | – | – | – | – |
| Nc1c(F)c(NCCNc2ccccn2)c(F)c2c1c(=O)c(C(=O)O)cn2CCc1ccccc1 [compound 49] | – | – | – | – | – | 100 to 500 | 10 to 50 (≈ 4.79 to 24 µg/mL) | 10 to 50 (≈ 4.79 to 24 µg/mL) |
| CC(C)C[C@H]1COc2c(NCCNc3ccccn3)c(F)c(N)c3c(=O)c(C(=O)O)cn1c23 [compound 51] | 10 to 50 (≈ 4.55 to 22.8 µg/mL) | 10 to 50 (≈ 4.55 to 22.8 µg/mL) | < 100 | – | – | – | – | – |
| CC1(C)COc2c(NCCCn3cnc4ccccc43)c(F)c(N)c3c(=O)c(C(=O)O)cn(c23)C1 [compound 52] | 0.5 to 10 (≈ 0.24 to 4.8 µg/mL) | 0.5 to 10 (≈ 0.24 to 4.8 µg/mL) | 100 to 500 | – | – | – | – | – |
| Nc1c(F)c(NCCc2ccncc2)c(F)c2c1c(=O)c(C(=O)O)cn2C1CCCC1 [compound 53] | – | – | – | 10 to 50 (≈ 4.28 to 21.4 µg/mL) | 10 to 50 (≈ 4.28 to 21.4 µg/mL) | 100 to 500 | – | – |
| CC(C)[C@H]1COc2c(NCCCn3ccnc3)c(F)c(N)c3c(=O)c(C(=O)O)cn1c23 [compound 54] | 10 to 50 (≈ 4.29 to 21.5 µg/mL) | > 50 | < 100 | – | – | – | – | – |
| Nc1c(F)c(NCCCn2ccnc2)c(F)c2c1c(=O)c(C(=O)O)cn2C1CCCC1 [compound 54] | – | – | – | > 50 | > 50 | < 100 | – | – |
| CC(C)OCCCNc1c(F)c(N)c2c(=O)c(C(=O)O)cn(C3CCCC3)c2c1F [compound 55] | – | – | – | – | – | < 100 | 10 to 50 (≈ 4.23 to 21.2 µg/mL) | 10 to 50 (≈ 4.23 to 21.2 µg/mL) |
| CC1(C)Cn2cc(C(=O)O)c(=O)c3c(N)c(F)c(NCCCn4cnc5ccccc54)c(c32)O1 [compound 56] | 10 to 50 (≈ 4.65 to 23.3 µg/mL) | 10 to 50 (≈ 4.65 to 23.3 µg/mL) | 100 to 500 | – | – | – | – | – |
| Nc1c(F)c(NCCNc2cccc3ccccc23)c(F)c2c1c(=O)c(C(=O)O)cn2C1CCCC1 [compound 56] | – | – | – | 10 to 50 (≈ 4.93 to 24.6 µg/mL) | 10 to 50 (≈ 4.93 to 24.6 µg/mL) | < 100 | – | – |

More lines, main results first:

| MIC [1, 4] [µM] | MIC [2, 5] [µM] | IC50 ([3]; Table 2) [nM] | MIC [1, 6] [µM] | MIC [2, 7] [µM] | IC50 ([3]; Table 1) [nM] | SMILES | MIC [1, 8] [µM] | MIC [2, 9] [µM] |
| --- | --- | --- | --- | --- | --- | --- | --- | --- |
| 10 to 50 (≈ 4.25 to 21.3 µg/mL) | 10 to 50 (≈ 4.25 to 21.3 µg/mL) | < 100 | – | – | – | CC1(C)COc2c(NCCCc3ccccc3)c(F)c(N)c3c(=O)c(C(=O)O)cn1c23 [compound 38] | – | – |
| – | – | – | 0.5 to 10 (≈ 0.232 to 4.64 µg/mL) | 0.5 to 10 (≈ 0.232 to 4.64 µg/mL) | < 100 | Nc1c(F)c(NCCNc2cccc3ccccc23)c(F)c2c1c(=O)c(C(=O)O)cn2C1CC1 [compound 43] | – | – |
| – | – | – | 10 to 50 (≈ 4.78 to 23.9 µg/mL) | 10 to 50 (≈ 4.78 to 23.9 µg/mL) | < 100 | Nc1c(F)c(NCCCc2ccccc2)c(F)c2c1c(=O)c(C(=O)O)cn2CCc1ccccc1 [compound 46] | – | – |
| – | – | – | 10 to 50 (≈ 4.64 to 23.2 µg/mL) | 10 to 50 (≈ 4.64 to 23.2 µg/mL) | < 100 | Nc1c(F)c(NCCc2ccncc2)c(F)c2c1c(=O)c(C(=O)O)cn2CCc1ccccc1 [compound 47] | – | – |
| – | – | – | > 50 | > 50 | < 100 | Nc1c(F)c(NCCCn2ccnc2)c(F)c2c1c(=O)c(C(=O)O)cn2CCc1ccccc1 [compound 48] | – | – |
| – | – | – | 0.5 to 10 (≈ 0.23 to 4.59 µg/mL) | 0.5 to 10 (≈ 0.23 to 4.59 µg/mL) | 500 to 1000 | CC(C)OCCCNc1c(F)c(N)c2c(=O)c(C(=O)O)cn(CCc3ccccc3)c2c1F [compound 50] | – | – |
| 10 to 50 (≈ 4.54 to 22.7 µg/mL) | 10 to 50 (≈ 4.54 to 22.7 µg/mL) | < 100 | – | – | – | CC(C)C[C@H]1COc2c(NCCCc3ccccc3)c(F)c(N)c3c(=O)c(C(=O)O)cn1c23 [compound 50] | – | – |
| – | – | – | 10 to 50 (≈ 5.29 to 26.4 µg/mL) | 10 to 50 (≈ 5.29 to 26.4 µg/mL) | 100 to 500 | Nc1c(F)c(NCCNc2cccc3ccccc23)c(F)c2c1c(=O)c(C(=O)O)cn2CCc1ccccc1 [compound 51] | – | – |
| – | – | – | 10 to 50 (≈ 4.41 to 22.1 µg/mL) | 10 to 50 (≈ 4.41 to 22.1 µg/mL) | < 100 | Nc1c(F)c(NCCCc2ccccc2)c(F)c2c1c(=O)c(C(=O)O)cn2C1CCCC1 [compound 52] | – | – |
| – | – | – | 10 to 50 (≈ 3.83 to 19.2 µg/mL) | 10 to 50 (≈ 3.83 to 19.2 µg/mL) | 500 to 1000 | Nc1c(F)c(NCCCCc2ccccc2)c(F)c2c1c(=O)ccn2C1CC1 [compound 57] | – | – |
